# Like-named read-outs stand apart in the source and are kept apart here.
# Assays:
# [1] = system: human platelet rich plasma (PRP); test: ADP induced platelet aggregation assay; type: cell-based; settings: 5 min, read-out: PA IC50 (μM) @ 10 μM ADP
# Experimental: ADP Induced Platelet Aggregation Assay
# The ability of P2Y1 antagonists covered in the present invention to inhibit platelet aggregation induced by 10 μM ADP was tested using human platelet rich plasma (PRP) as described in Platelet Protocols: Research and Clinical Laboratory Procedures (White, M. M. et al., Academic Press (1999)). Human blood was collected in 30 μM (final concentration in blood) argatroban (GSK) as the anticoagulant at a ratio of 1 ml per 9 ml of blood. The PRP was isolated by centrifugation at 170 g for 12 minutes. The platelet poor plasma (PPP) was used as the blank for optical aggregometry. Compounds of the present invention in DMSO solution was preincubated with 250 μl PRP at 37° C. for 1 minute with stirring speed of 1000 rpm. Aggregation was initiated by addition of 2.5 μl of 1 mM ADP (Chrono-log, Havertown, Pa.) for a final ADP concentration of 10 uM. Platelet aggregation was monitored using Optical Aggregometer (Chrono-log, Havertown, Pa.) and the area under the curve (AUC) at 5 minute was measured. IC50 was calculated using vehicle control as 0% inhibition.
# The platelet aggregation assay measures the in vitro antiplatelet activity of a compound in platelet rich plasma. The assay is sensitive to plasma protein binding, and is believed to be a better predictor of actual in vivo activity.
# [2] = target: cloned human P2Y1 receptors (Homo sapiens (Human), UniProt P47900); test: Binding Assay A: membrane binding assay, [33P] 2MeS-ADP, WGA FlashPlates
# Description: A membrane binding assay was used to identify inhibitors of [^33P] […] The cDNA clone for human P2Y1 was obtained from Incyte Pharmaceuticals and its sequence confirmed by established techniques (for a compendium of techniques used see Ausubel, F. et al. Current Protocols in Molecular Biology, John Wiley and Sons, NY, N.Y. (1995)). The essential coding sequences were subcloned into pCDNA 3.1 (Invitrogen) to produce a P2Y1 expression construct. This construct was then transfected into the human embryonic kidney cell line HEK-293 and stable transfectants selected in GENETICIN® (G418 sulfate; Life Technologies). […] Membranes were prepared by growing HEK293 #49 in 150 mm dishes in DMEM/10% FBS in the presence of 1 mg/ml G418 until cells were 80-90% confluent. Plates were then washed with cold (4° C.) D-PBS twice and cells harvested by scraping into 10 mL D-PBS. Cells were pelleted by centrifugation (1,000 g, 10 min, 4° C.) and the resulting pellet resuspended in Lysis Buffer (10 mM Tris (7.4), 5 mM MgCl2 containing Complete protease inhibitor cocktail (Roche Cat #1873580) as recommended by the manufacturer). The suspension was then homogenized in a Dounce homogenizer (10-15 strokes; B pestle, on ice) and the homogenate spun at 1,000 g, 4° C., 5 min to pellet large debris. The supernatant was centrifuged at 150,000 g, 4° C., for 1 hour and the resulting membrane pellet resuspended in 0.5-1 mL of Buffer B (15 mM HEPES (7.4), 145 mM NaCl, 0.1 mM MgCl2, 5 mM EDTA, 5 mM KCl) and stored at −70° C. until used.
# Binding reactions were performed in WGA FlashPlates (PerkinElmer Life Sciences, Cat # SMP105A) in a volume of 200 μL containing ˜45 fmol of P2Y1 receptor (5 μg of total protein), 0.5 nM [^33P] […] Reactions were allowed to proceed to completion at room temperature for 1 hour and then the aqueous solution aspirated. Plates were sealed and the residual [^33P] bound to the plate determined by scintillation counting.
# [3] = starred values, FlashPlate, 0.5 nM [33P] 2MeS-ADP, Cheng-Prusoff, read-out: P2Y1 Ki (nM), *Using binding assay A
# [4] = read-out: P2Y1 Ki (nM), *Using binding assay A
# Sequence of cloned human P2Y1 receptors (P47900 whole entry): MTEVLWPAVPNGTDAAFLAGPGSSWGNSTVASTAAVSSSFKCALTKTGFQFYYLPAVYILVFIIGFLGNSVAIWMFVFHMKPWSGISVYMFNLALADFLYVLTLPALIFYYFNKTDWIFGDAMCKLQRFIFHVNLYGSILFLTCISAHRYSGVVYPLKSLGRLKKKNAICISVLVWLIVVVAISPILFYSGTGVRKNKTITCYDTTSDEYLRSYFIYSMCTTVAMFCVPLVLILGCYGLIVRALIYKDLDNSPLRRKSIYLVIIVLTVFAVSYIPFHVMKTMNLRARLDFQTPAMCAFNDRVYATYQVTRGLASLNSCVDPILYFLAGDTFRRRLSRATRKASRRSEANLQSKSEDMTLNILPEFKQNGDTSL
SMILES,IC50 [1] [µM],"Ki [2, 3] [nM]",Ki [2] [nM],"Ki [2, 4] [nM]"
"CC(C)(C)CN1CCC2(CC1)CN(c1ccccc1Nc1nnc(-c3cnccn3)s1)c1c(O)ccc(Cl)c12 [Example 12, 4-Chloro-1′-neopentyl-1-(2-((5-(pyrazin-2-yl)-1,3,4-thiadiazol-2-yl)amino)phenyl)spiro[indoline-3,4′-piperidin]-7-ol]",0.9,6.5,,
"CC(C)(C)CN1CCC2(CC1)CN(c1ccccc1Nc1nnc(-c3ccc(C(F)(F)F)cc3)s1)c1c(O)ccc(Cl)c12 [Example 7, 4-Chloro-1′-neopentyl-1-(2-(5-(4-(trifluoromethyl)phenyl)-1,3,4-thiadiazol-2-ylamino)phenyl)spiro[indoline-3,4′-piperidin]-7-ol]",2.7,,3.3,
"CC(C)(C)CN1CCC2(CC1)CN(c1ccccc1Nc1nnc(C3CCOCC3)s1)c1c(O)ccc(Cl)c12 [Example 14, 4-Chloro-1′-neopentyl-1-(2-((5-(tetrahydro-2H-pyran-4-yl)-1,3,4-thiadiazol-2-yl)amino)phenyl)spiro[indoline-3,4′-piperidin]-7-ol]",23,,,155
"Cc1cc(-c2nnc(Nc3ccccc3N3CC4(CCN(CC(C)(C)C)CC4)c4c(Cl)ccc(O)c43)s2)n(C)n1 [Example 13, 4-Chloro-1-(2-((5-(1,3-dimethyl-1H-pyrazol-5-yl)-1,3,4-thiadiazol-2-yl)amino)phenyl)-1′-neopentylspiro[indoline-3,4′-piperidin]-7-ol]",0.9,6.6,,
"CC(C)(C)CN1CCC2(CC1)CCN(c1ccccc1Nc1nc3ccc(C(C)(C)C)cc3[nH]1)c1ccccc12 [Comparator 1, reference compound]",> 40,,,259
"CC(C)(C)CN1CCC2(CC1)CN(c1ccccc1Nc1nnc(-c3ccc(C(F)(F)F)nc3)s1)c1c(O)ccc(Cl)c12 [Example 15, 4-Chloro-1′-neopentyl-1-(2-((5-(6-(trifluoromethyl)pyridin-3-yl)-1,3,4-thiadiazol-2-yl)amino)phenyl)spiro[indoline-3,4′-piperidin]-7-ol]",1.6,,5.7,

# Reference: patent US9120798B2, “Amino-heteroaryl 7-hydroxy-spiropiperidine indolinyl antagonists of P2Y1 receptor” (priority 2012, dated 2015)
